The values below come from US9133207B2, “Tetrandrine derivatives with substituted 5-carbon, preparation method and use thereof” (Hangzhou Bensheng Pharmaceutical Co., Ltd., priority 2011, dated 2015).

Values after ≈ are worked out from the molar mass of the structure shown.

Series [1] concerns H9 (acute lymphoblastic leukemia, ALL). Briefly: Leukemia cell growth inhibition, MTT, 72 h (Example 5). It is filed as cell-based, human. The conditions noted are these: Homo sapiens; 72 h, MTT. The essentials:
(§1)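 RPMI 1640 + 10% FBS, 6000 cells/well; tetrandrine derivatives at various concentrations; 37° C, 5% CO2, 72 h; viability by MTT.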

The subject of series [2] is Jurkat (acute lymphoblastic leukemia, ALL). Described as above. It is filed as cell-based, human. Particulars: Homo sapiens, Jurkat; 72 h, MTT. The essentials: as §1
Series [3] concerns K562/adr (drug-resistant, chronic myeloid leukemia, CML). Described as above. It is filed as cell-based, human. The conditions noted are these: Homo sapiens, K562/Adr; 72 h, MTT. The essentials: as §1
Series [4] has as its system Kasumi-1 (acute myeloid leukemia M2 type, AML-M2). Described as above. It is filed as cell-based, human. Particulars: Homo sapiens, Kasumi 1. The essentials: as §1
Series [5] relates to NB4 (acute promyelocytic leukemia, AML). Described as above. It is filed as cell-based, human. Particulars: Homo sapiens; 72 h, MTT. The essentials: as §1
Series [6] relates to RPMI8226 (multiple myeloma). Briefly: Multiple myeloma cell growth inhibition, MTT, 72 h (Example 6). It is filed as cell-based, human. Particulars: Homo sapiens, RPMI-8226; 72 h, MTT, RPMI8226. The essentials:
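Viability was read by MTT after 72 h of compound exposure at 37 °C, 5% CO2. Each well held 6000 RPMI8226 cells in 1640 medium containing 10% fetal bovine serum, with derivatives added at various concentrations.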

Series [7] relates to CaES-17 (esophageal cancer cell). Briefly: Solid tumor cell growth inhibition, MTT, 72 h (Example 7). It is filed as cell-based, human. Particulars: Homo sapiens, CaEs17; 72 h, MTT, CAES-17. The essentials:
(§2)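 Cell viability was quantified by MTT 72 h after adding derivatives at different concentrations to 4000 cells/well. Untreated cells served as the 100% reference.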

In series [8] the test system is Hep-2 (laryngeal carcinoma). The series is described as above. It is filed as cell-based, human. The conditions noted are these: Homo sapiens; 72 h, MTT, Hep 2. The essentials: as §2
In the next series the test system is MG63 (osteosarcoma). The series is described as above. Particulars: Homo sapiens; 72 h, MTT, MG-63. It is filed as cell-based, human. The essentials: as §2
For series [9], the system named is PANC-1 (pancreatic cancer). The series is described as above. It is filed as cell-based, human. Particulars: Homo sapiens; 72 h, MTT, PANC-1. The essentials: as §2
Another series relates to PC-3 (prostate cancer). Described as above. Particulars: Homo sapiens; 72 h, MTT, PC-3. It is filed as cell-based, human. The essentials: as §2
Another series relates to A549 (human lung cancer). The series is described as above. It is filed as cell-based. The conditions noted are these: Homo sapiens; 72 h, MTT, A549. The essentials:
as §2

In series [10] the test system is Becap37 (human breast cancer cell). The series is described as above. The conditions noted are these: Homo sapiens; 72 h, MTT, Becap-37. It is filed as cell-based. The essentials: as §2
The test system of series [11] is CNE (nasopharyngeal carcinoma cell). The series is described as above. It is filed as cell-based. Particulars: Homo sapiens. The essentials:
as §2

Series [12] deals with Hela (human cervical cancer cell). The series is described as above. It is filed as cell-based. The conditions noted are these: Homo sapiens; 72 h, MTT, Hela. The essentials:
as §2

The subject of series [13] is Huh7 (human liver cancer cell). The series is described as above. The conditions noted are these: Homo sapiens; 72 h, MTT, Huh-7. It is filed as cell-based. The essentials: as §2
In series [14] the test system is MGC 803 (human gastric cancer cell). The description is as above. It is filed as cell-based. Particulars: Homo sapiens. The essentials: as §2
Series [15] relates to RKO (human colon adenocarcinoma cell). Described as above. The conditions noted are these: Homo sapiens; 72 h, MTT, RKO. It is filed as cell-based. The essentials: as §2
Series [16] deals with SK-OV-3 (ovarian cancer cell). Described as above. It is filed as cell-based. The conditions noted are these: Homo sapiens. The essentials:
as §2

Series [17] relates to U87 MG (malignant glioma cell). Described as above. It is filed as cell-based. Particulars: Homo sapiens, U-87 MG. The essentials: as §2
Series [18] has as its system human non-small cell lung cancer cell line A549 transplanted tumor. Kind of series: Experiment 8-2: transplanted tumor of human lung cancer in nude mice. It is filed as in vivo, BALB/c nude mice. Particulars: 50 mg/kg intragastric, 3 times a day, 10 days, Day 29, M±SD. An excerpt:
Cell lines: human non-small cell lung cancer cell line A549, from China Center for Type Culture Collection (CCTCC);
The administrations are successive for 10 days.

Series [19] is described as follows: Experiment 8-2: body weight of nude mice, preliminary toxicity. The conditions noted are these: M±SD.
Description: Animal: BALB/c nude mice, 8 weeks, female, purchased from Shanghai Laboratory Animal Center of Chinese Academy of Sciences, China.
The mice are administered from the third day after the inoculation. Each mouse is intragastrically administered in 0.4 ml each time and 3 times a day, at 8:00, 14:00 and 20:00, with 6-hour intervals. The administrations are successive for 10 days. The day before administration is deemed as Day 0 and the body weight and tumor size are determined every 5 days to produce a dynamic plot on body weight and tumor growth. On Day 29, the mice are dissected and the tumors are taken out and weighted. The tumor inhibition rate (%) is calculated after the effect of the medicament based on the tumor inhibition rate of the control group being zero.
The values determined are presented as mean±standard error (M±SD).
Series [20] concerns drug-resistant lung cancer cell GLC-82/ADR. The conditions noted are these: while adriamycin is used, without tetrandrine; cited from earlier work.

In general, IC50 refers to the midpoint of a concentration-inhibition curve. One may read the IC90 as the concentration at which the effect reaches the 90% level. With `COc1ccc2cc1Oc1ccc(cc1)C[C@H]1c3cc(c(OC)cc3CCN1C)Oc1c(OC)c(OC)c(COCc3cccnc3)c3c1[C@H](C2)N(C)CC3` [BS-TE-411], the IC50 in series [1] stood at 1.23 mg/L (≈ 1.65 µM); in series [2], 1 mg/L (≈ 1.34 µM); in series [3], 0.79 mg/L (≈ 1.06 µM); in series [4], 0.75 mg/L (≈ 1.01 µM); in series [5] it was 0.7 mg/L (≈ 0.941 µM); in series [6], 0.26 mg/L (≈ 0.35 µM). Also, the IC50 in [7] stood at 2.76 mg/L (≈ 3.71 µM); in series [8], 2.15 mg/L (≈ 2.89 µM); in the series with MG63 (osteosarcoma), 1.26 mg/L (≈ 1.69 µM); in series [9], 2.29 mg/L (≈ 3.08 µM); in the series on PC-3 (prostate cancer) it was 2.41 mg/L (≈ 3.24 µM); in the series on A549 (human lung cancer), 5.5 mg/L (≈ 7.39 µM). For the same molecule, the IC50 in series [10] worked out at 1.9 mg/L (≈ 2.55 µM); in [11] it was 1.32 mg/L (≈ 1.77 µM); in series [12], 1.49 mg/L (≈ 2 µM); in series [13], 1.13 mg/L (≈ 1.52 µM); in [14], 2.15 mg/L (≈ 2.89 µM); in series [15], 0.26 mg/L (≈ 0.35 µM). In addition, the results for the IC50 in [16] and in [17] were 8 mg/L (≈ 10.8 µM) and 1.09 mg/L (≈ 1.47 µM), respectively. Moreover, the IC90 in series [1] worked out at 2.5 mg/L (≈ 3.36 µM); in series [2] it was 8.5 mg/L (≈ 11.4 µM); in [3] it was 3.59 mg/L (≈ 4.83 µM); in series [4], 3.58 mg/L (≈ 4.81 µM); in series [5], 2.6 mg/L (≈ 3.5 µM); in [6] it was 1.35 mg/L (≈ 1.81 µM). For the same molecule, the IC90 in series [7] came to 11.8 mg/L (≈ 15.8 µM); in [8], 5.69 mg/L (≈ 7.65 µM); in the series with MG63 (osteosarcoma), 3.07 mg/L (≈ 4.13 µM); in [9] it was 8.92 mg/L (≈ 12 µM); with PC-3 (prostate cancer) it was 5.56 mg/L (≈ 7.47 µM); with A549 (human lung cancer), 15.5 mg/L (≈ 20.8 µM). Also, the IC90 in series [10] worked out at 4.9 mg/L (≈ 6.59 µM); in series [11], 3.33 mg/L (≈ 4.48 µM); in [12], 3.45 mg/L (≈ 4.64 µM); in series [13] it was 1.66 mg/L (≈ 2.23 µM); in series [14] it was 9.02 mg/L (≈ 12.1 µM); in [15] it was 0.6 mg/L (≈ 0.807 µM). For the same molecule, the IC90 in series [16] was over 16 mg/L; in [17] it was 2.55 mg/L (≈ 3.43 µM).

Consider `COc1cc2ncnc(Nc3ccc(F)c(Cl)c3)c2cc1OCCCN1CCOCC1` [Jef, gefitinib, reference compound], for which, in series [18], the “Mass of tumor” value turned out to be 883 ± 273.32 mg. Moreover, in [19] (50 mg/kg intragastric, 3 times a day, 10 days, final body weight), the “Weight (g) Final” value was 21.8 ± 0.99 g. The “Weight (g) Initial” value in series [19] (nude mice body weight before administration) was 22.1 ± 0.17 g.

As to `COc1cccc2c1C(=O)c1c(O)c3c(c(O)c1C2=O)C[C@@](O)(C(=O)CO)C[C@@H]3O[C@H]1C[C@H](N)[C@H](O)[C@H](C)O1` [adriamycin], in [20], the drug-resistance index is listed as 5.43.
